Assay results published in PubChem BioAssay AID1963977 (Molecular Pharmacology Branch, DTP, NCI, 2024).
Values joined by “and” are separate entries in the source; they are usually repeats but may differ in a detail not shown here. Equal values may be shown once.

Tested on: 624824-186-R-J3-PDC multicell spheroids, viability
Experiment: Anticancer human tumor 624824-186-R-J3-PDC patient-derived colon adenocarcinoma cell line growth inhibition [PI3K]
Conditions: for viability, T/C: stronger effect = lower value
How it was run: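 Viability of mixed-cell spheroids was determined after exposure to pairwise combinations, one partner being inavolisib, alpelisib, duvelisib or copanlisib. Highest tested concentration matched clinical Cmax where known and 10 microM where not, descending in half-log steps.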

[1] = curve of first compound, second compound 0.00316 µM
[2] = curve of first compound, second compound 0.01 µM
[3] = curve of first compound, second compound 0.0316 µM
[4] = curve of first compound, second compound 0.1 µM
[5] = curve of first compound, second compound 0.316 µM
[6] = curve of first compound, second compound 1 µM
[7] = second compound 0.00316 µM, first compound 0.000316 µM
[8] = second compound 0.00316 µM, first compound 0.001 µM
[9] = second compound 0.00316 µM, first compound 0.00316 µM
[10] = second compound 0.00316 µM, first compound 0.01 µM
[11] = second compound 0.00316 µM, first compound 0.0316 µM
[12] = second compound 0.00316 µM, first compound 0.1 µM
[13] = second compound 0.01 µM, first compound 0.000316 µM
[14] = second compound 0.01 µM, first compound 0.001 µM
[15] = second compound 0.01 µM, first compound 0.00316 µM
[16] = second compound 0.01 µM, first compound 0.01 µM
[17] = second compound 0.01 µM, first compound 0.0316 µM
[18] = second compound 0.01 µM, first compound 0.1 µM
[19] = second compound 0.0316 µM, first compound 0.000316 µM
[20] = second compound 0.0316 µM, first compound 0.001 µM
[21] = second compound 0.0316 µM, first compound 0.00316 µM
[22] = second compound 0.0316 µM, first compound 0.01 µM
[23] = second compound 0.0316 µM, first compound 0.0316 µM
[24] = second compound 0.0316 µM, first compound 0.1 µM
[25] = second compound 0.1 µM, first compound 0.000316 µM
[26] = second compound 0.1 µM, first compound 0.001 µM
[27] = second compound 0.1 µM, first compound 0.00316 µM
[28] = second compound 0.1 µM, first compound 0.01 µM
[29] = second compound 0.1 µM, first compound 0.0316 µM
[30] = second compound 0.1 µM, first compound 0.1 µM
[31] = second compound 0.316 µM, first compound 0.000316 µM
[32] = second compound 0.316 µM, first compound 0.001 µM
[33] = second compound 0.316 µM, first compound 0.00316 µM
[34] = second compound 0.316 µM, first compound 0.01 µM
[35] = second compound 0.316 µM, first compound 0.0316 µM
[36] = second compound 0.316 µM, first compound 0.1 µM
[37] = second compound 1 µM, first compound 0.000316 µM
[38] = second compound 1 µM, first compound 0.001 µM
[39] = second compound 1 µM, first compound 0.00316 µM
[40] = second compound 1 µM, first compound 0.01 µM
[41] = second compound 1 µM, first compound 0.0316 µM
[42] = second compound 1 µM, first compound 0.1 µM
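Further: spheroids exposed to agents for seven days before luminescence read.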
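Wherever viability, T/C is given: luminescent signal used as a stand-in for spheroid viability; percent viability relative to DMSO vehicle control wells taken as 100%.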

In the case of `CC(=O)c1c(C)c2cnc(Nc3ccc(N4CCNCC4)cn3)nc2n(C2CCCC2)c1=O` + COc1c(OCCCN2CCOCC2)ccc2c3n(c(=NC(=O)c4cnc(N)nc4)nc12)CCN3, the IC50 [1] is reported as over 100 nM, the IC50 [2] is reported as over 100 nM and the IC50 [3] is reported as over 100 nM. The IC50 [4] was 93 nM, the IC50 [5] was 0.852 nM and the IC50 [6] was under 0.316 nM. For the same compound, the viability, T/C [7] was 99.3%, the viability, T/C [8] was 97.3% and the viability, T/C [9] was 107%. For the same compound, the viability, T/C [10] was 96.7%, the viability, T/C [11] was 93% and the viability, T/C [12] was 108%. It also gave a viability, T/C [13] of 104%, a viability, T/C [14] of 103% and a viability, T/C [15] of 104%. The viability, T/C [16] was 105%, the viability, T/C [17] was 98.8% and the viability, T/C [18] was 116%. It also gave a viability, T/C [19] of 90.9%, a viability, T/C [20] of 106% and a viability, T/C [21] of 86.6%. The viability, T/C [22] was 87.3%, the viability, T/C [23] was 93.7% and the viability, T/C [24] was 80.4%. The viability, T/C [25] was 75.1%, the viability, T/C [26] was 75.8% and the viability, T/C [27] was 74.4%. It also gave a viability, T/C [28] of 74%, a viability, T/C [29] of 70.5% and a viability, T/C [30] of 48.6%. For the same compound, the viability, T/C [31] was 52.9%, the viability, T/C [32] was 46.5% and the viability, T/C [33] was 49.9%. For the same compound, the viability, T/C [34] was 40.2%, the viability, T/C [35] was 35.6% and the viability, T/C [36] was 26.4%. For the same compound, the viability, T/C [37] was 27.6%, the viability, T/C [38] was 32% and the viability, T/C [39] was 28.3%. For the same compound, the viability, T/C [40] was 26.7%, the viability, T/C [41] was 21.5% and the viability, T/C [42] was 19.7%.

For `C[C@@H](NC(=O)c1ncnc(N)c1Cl)c1ncc(C(=O)Nc2cc(C(F)(F)F)c(Cl)cn2)s1` + COc1c(OCCCN2CCOCC2)ccc2c3n(c(=NC(=O)c4cnc(N)nc4)nc12)CCN3, the IC50 [1] was over 10000 nM, the IC50 [2] was over 10000 nM and the IC50 [3] was over 10000 nM. It also gave an IC50 [4] of 4440 nM, an IC50 [5] of 538 nM and an IC50 [6] of under 31.6 nM. The viability, T/C [11] was 108%, the viability, T/C [12] was 114% and the viability, T/C (second compound 0.00316 µM, first compound 0.316 µM) was 109%. It also gave a viability, T/C (second compound 0.00316 µM, first compound 1 µM) of 103%, a viability, T/C (second compound 0.00316 µM, first compound 3.16 µM) of 99% and a viability, T/C (second compound 0.00316 µM, first compound 10 µM) of 85.8%. It also gave a viability, T/C [17] of 107%, a viability, T/C [18] of 97.9% and a viability, T/C (second compound 0.01 µM, first compound 0.316 µM) of 95.6%. The viability, T/C (second compound 0.01 µM, first compound 1 µM) was 96.2%, the viability, T/C (second compound 0.01 µM, first compound 3.16 µM) was 92.5% and the viability, T/C (second compound 0.01 µM, first compound 10 µM) was 80.2%. For the same compound, the viability, T/C [23] was 91.3%, the viability, T/C [24] was 103% and the viability, T/C (second compound 0.0316 µM, first compound 0.316 µM) was 91.5%. It also gave a viability, T/C (second compound 0.0316 µM, first compound 1 µM) of 99.1%, a viability, T/C (second compound 0.0316 µM, first compound 3.16 µM) of 76.8% and a viability, T/C (second compound 0.0316 µM, first compound 10 µM) of 52.1%. It also gave a viability, T/C [29] of 88.2%, a viability, T/C [30] of 82.1% and a viability, T/C (second compound 0.1 µM, first compound 0.316 µM) of 78.3%. It also gave a viability, T/C (second compound 0.1 µM, first compound 1 µM) of 76.9%, a viability, T/C (second compound 0.1 µM, first compound 3.16 µM) of 54.1% and a viability, T/C (second compound 0.1 µM, first compound 10 µM) of 38.5%. The viability, T/C [35] was 54.4%, the viability, T/C [36] was 60.6% and the viability, T/C (second compound 0.316 µM, first compound 0.316 µM) was 59.2%. The viability, T/C (second compound 0.316 µM, first compound 1 µM) was 41%, the viability, T/C (second compound 0.316 µM, first compound 3.16 µM) was 28.5% and the viability, T/C (second compound 0.316 µM, first compound 10 µM) was 23.1%. It also gave a viability, T/C [41] of 32.9%, a viability, T/C [42] of 31.5% and a viability, T/C (second compound 1 µM, first compound 0.316 µM) of 31%. It also gave a viability, T/C (second compound 1 µM, first compound 1 µM) of 25%, a viability, T/C (second compound 1 µM, first compound 3.16 µM) of 20.3% and a viability, T/C (second compound 1 µM, first compound 10 µM) of 14.8%.

`CC(C)n1nc(-c2ccc3oc(N)nc3c2)c2c(N)ncnc21` + COc1c(OCCCN2CCOCC2)ccc2c3n(c(=NC(=O)c4cnc(N)nc4)nc12)CCN3 gave an IC50 [1] of over 100 nM, an IC50 [2] of over 100 nM and an IC50 [3] of 60.2 nM. The IC50 [4] was 29.2 nM, the IC50 [5] was 1.66 nM and the IC50 [6] was under 0.316 nM. It also gave a viability, T/C [7] of 108%, a viability, T/C [8] of 106% and a viability, T/C [9] of 106%. For the same compound, the viability, T/C [10] was 99.2%, the viability, T/C [11] was 89.1% and the viability, T/C [12] was 52.6%. For the same compound, the viability, T/C [13] was 101%, the viability, T/C [14] was 102% and the viability, T/C [15] was 109%. The viability, T/C [16] was 95.9%, the viability, T/C [17] was 82.2% and the viability, T/C [18] was 52.2%. The viability, T/C [19] was 97.8%, the viability, T/C [20] was 96.7% and the viability, T/C [21] was 91.9%. For the same compound, the viability, T/C [22] was 92.3%, the viability, T/C [23] was 63.6% and the viability, T/C [24] was 39.2%. For the same compound, the viability, T/C [25] was 83.2%, the viability, T/C [26] was 80.2% and the viability, T/C [27] was 80.2%. The viability, T/C [28] was 72.1%, the viability, T/C [29] was 48.3% and the viability, T/C [30] was 27.5%. For the same compound, the viability, T/C [31] was 53.5%, the viability, T/C [32] was 48.6% and the viability, T/C [33] was 51.1%. It also gave a viability, T/C [34] of 39.2%, a viability, T/C [35] of 31.5% and a viability, T/C [36] of 22.2%. It also gave a viability, T/C [37] of 28.5%, a viability, T/C [38] of 28.8% and a viability, T/C [39] of 31.4%. The viability, T/C [40] was 23.9%, the viability, T/C [41] was 24.9% and the viability, T/C [42] was 18.6%.

`Cn1ncnc1[C@H]1c2n[nH]c(=O)c3cc(F)cc(c23)N[C@@H]1c1ccc(F)cc1` was tested, and the viability, T/C (compound 0.000316 µM) was 110% [middle of 4 runs], the viability, T/C (compound 0.001 µM) was 100% [middle of 4 runs] and the viability, T/C (compound 0.01 µM) was 99.7% [middle of 4 runs]. For the same compound, the viability, T/C (compound 0.0316 µM) was 103% (2×) and 93.2% and 95.4%, the viability, T/C (compound 0.1 µM) was 98.4% [middle of 4 runs] and the IC50 (curve of compound) was over 100 nM.
